Measured values from ChEMBL document CHEMBL4699500, “Synthesis of metronidazole based thiazolidinone analogs as promising antiamoebic agents” (Bioorg Med Chem Lett, 2020).
pIC50: −log10 of the molar value.

Assays:
[1] = test system: Entamoeba histolytica; test: Antimicrobial activity against Entamoeba histolytica HM1:MMS assessed as reduction in amoeba growth incubated for 72 hrs by microscopy analysis; format: functional, organism-based
[2] = test system: HEK293; test: Cytotoxicity against human HEK293 cells assessed as reduction in cell viability at 2.5 to 50 uM incubated for 48 hrs by MTT assay; format: cell-based; settings: hek293, 48 h, dose 2.5-50 µM
[3] = test system: HEK293; test: Cytotoxicity against human HEK293 cells assessed as reduction in cell viability at 100 uM incubated for 48 hrs by MTT assay; format: cell-based; settings: hek293, 48 h

| Structure (SMILES) | pIC50 [1] | Activity [2] | Activity [3] |
| --- | --- | --- | --- |
| Cc1ncc([N+](=O)[O-])n1CCOc1ccc(/C=C2\S/C(=N\c3ccccc3)N(Cc3ccccc3Cl)C2=O)cc1 | 5.63 | – | – |
| Cc1ncc([N+](=O)[O-])n1CCOc1ccc(/C=C2\S/C(=N\c3ccccc3)N(Cc3ccncc3)C2=O)cc1 | 6.43 | Non-Toxic | Non-Toxic |
| Cc1ncc([N+](=O)[O-])n1CCOc1ccc(/C=C2\S/C(=N\c3ccccc3)N(CC3CCCO3)C2=O)cc1 (stereo not drawn) | 5.51 | – | – |
| Cc1ncc([N+](=O)[O-])n1CCOc1ccc(/C=C2\S/C(=N\c3ccccc3)N(Cc3ccco3)C2=O)cc1 | 6.19 | Non-Toxic | – |
| COc1ccc(CN2C(=O)/C(=C/c3ccc(OCCn4c([N+](=O)[O-])cnc4C)cc3)S/C2=N\c2ccccc2)cc1OC | 5.98 | Non-Toxic | – |
| CCCN1C(=O)/C(=C/c2ccc(OCCn3c([N+](=O)[O-])cnc3C)cc2)S/C1=N\c1ccccc1 | 5.44 | – | – |
| Cc1ncc([N+](=O)[O-])n1CCOc1ccc(/C=C2\S/C(=N\c3ccccc3)N(Cc3ccc(Cl)cc3Cl)C2=O)cc1 | 5.66 | – | – |
| Cc1ncc([N+](=O)[O-])n1CCOc1ccc(/C=C2\S/C(=N\c3ccccc3)N(CCO)C2=O)cc1 | 6.74 | Non-Toxic | – |
| Cc1ncc([N+](=O)[O-])n1CCOc1ccc(/C=C2\S/C(=N\c3ccccc3)N(CC(C)C)C2=O)cc1 | 5.40 | – | – |
| Cc1ncc([N+](=O)[O-])n1CCOc1ccc(/C=C2\S/C(=N\c3ccccc3)N(Cc3ccc(F)cc3)C2=O)cc1 | 5.55 | – | – |
| CCCCN1C(=O)/C(=C/c2ccc(OCCn3c([N+](=O)[O-])cnc3C)cc2)S/C1=N\c1ccccc1 | 5.30 | – | – |
| Cc1ncc([N+](=O)[O-])n1CCOc1ccc(/C=C2\S/C(=N\c3ccccc3)N(Cc3ccccc3)C2=O)cc1 | 5.78 | Non-Toxic | Non-Toxic |
| Cc1ncc([N+](=O)[O-])n1CCOc1ccc(/C=C2\S/C(=N\c3ccccc3)N(Cc3cccs3)C2=O)cc1 | 5.79 | Non-Toxic | Non-Toxic |
| Cc1ncc([N+](=O)[O-])n1CCO [METRONIDAZOLE] | – | Non-Toxic | – |
